Results from patent US8574563B2 (Bristol-Myers Squibb Company, priority 2006, dated 2013).

tested on: HCV 1b-377-neo replicon cells; experiment: HCV replicon assay, HCV 1b-377-neo replicon cells (1b FRET); type: cell-based, Hepatitis C virus genotype 1b; conditions: HCV 1b-377-neo replicon cells; HCV 1b genotype; read-out: EC50 range against HCV 1b (Table 2, Range)
How it was run: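 FRET-based replicon assay in HCV 1b-377-neo cells, including a comparison line carrying the NS5A Y2065H mutation that confers resistance to a reference compound.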

O=C(OCc1ccccc1)N1CCN(C(C(=O)N2CCC[C@H]2c2ncc(-c3ccc(-c4ccc(-c5c[nH]c([C@@H]6CCCN6C(=O)[C@H]6CCCO6)n5)cc4)cc3)[nH]2)c2ccccc2)CC1 (single isomer, unassigned) [Example 103-6] and “methyl ((1R)-2-((2S)-2-(5-(4′-(2-((2S)-1-(3- benzoylbenzyl)-2-pyrrolidinyl)-1H- imidazol-5-yl)-4-biphenylyl)-1H-imidazol-2- yl)-1-pyrrolidinyl)-2-oxo-1- phenylethyl)carbamate [Example 84-34]” fall in the same range of EC50: 1 to 99 nM for the first, 1 to 99 nM for the second.

With CCN(CC)[C@@H](C(=O)N1CCC[C@H]1c1ncc(-c2ccc(-c3ccc(-c4cnc([C@@H]5CCCN5C(=O)C5(NC(=O)OC)CC5)[nH]4)cc3)cc2)[nH]1)c1ccccc1 [Example M33, methyl (1-(((2S)-2-(5-(4′-(2-((2S)-1-((2R)-2-(diethylamino)-2-phenylacetyl)-2-pyrrolidinyl)-1H-imidazol-5-yl)-4-biphenylyl)-1H-imidazol-2-yl)-1-pyrrolidinyl)carbonyl)cyclopropyl) carbamate] the EC50 was 1 to 99 nM.

same assay, conditions: Hepatitis C virus, HCV 1b-377-neo replicon cells; HCV 1b genotype; read-out: EC50 range against HCV 1b (Table 2, Range)

Compared with Cc1cc(CC(=O)N2CCC[C@H]2c2ncc(-c3ccc(-c4ccc(-c5cnc([C@@H]6CCCN6C(=O)[C@@H](c6ccccc6)N6CCCCC6)[nH]5)cc4)cc3)[nH]2)n[nH]1 [Example 107-16, 1-((1R)-2-((2S)-2-(5-(4′-(2-((2S)-1-((5-methyl-1H-pyrazo1-3-yl)acetyl)-2-pyrrolidinyl)-1H-imidazol-5-yl)-4-biphenylyl)-1H-imidazol-2-yl)-1-pyrrolidinyl)-2-oxo-1-phenylethyl) piperidine], COC(=O)N[C@@H](C(=O)N1CCC[C@H]1c1ncc(-c2ccc(-c3ccc(-c4cnc([C@@H]5CCCN5C(=O)Cc5cc(C)[nH]n5)[nH]4)cc3)cc2)[nH]1)c1ccccc1 [Example 84-19, methyl ((1R)-2-((2S)-2-(5-(4′-(2-((2S)-1-((5-methyl-1H-pyrazol-3-yl)acetyl)-2-pyrrolidinyl)-1H-imidazol-5-yl)-4-biphenylyl)-1H-imidazol-2-yl)-1-pyrrolidinyl)-2-oxo-1-phenylethyl)carbamate] is higher in EC50: 0.001 to 0.999 nM for the first, 1 to 99 nM for the second.

CN1CCN(C(C(=O)N2CCC[C@H]2c2ncc(-c3ccc(-c4ccc(-c5cnc([C@@H]6CCCN6C(=O)[C@@H](c6ccccc6)N6CCCC6)[nH]5)cc4)cc3)[nH]2)c2ccccc2)CC1 (stereo partly drawn) [Example 98, 1-methyl-4-(2-oxo-1-phenyl-2-((2S)-2-(5-(4′-(2-((2S)-1-((2R)-2-phenyl-2-(1-pyrrolidinyl)acetyl)-2-pyrrolidinyl)-1H-imidazol-5-yl)-4-biphenylyl)-1H-imidazol-2-yl)-1-pyrrolidinyl)ethyl)piperazine] and CNC(=O)c1nc([C@@H]2CCCN2C(=O)[C@@H](c2ccccc2)N2CCCCC2)[nH]c1-c1ccc(-c2ccc(-c3cnc([C@@H]4CCCN4C(=O)[C@@H](c4ccccc4)N4CCCCC4)[nH]3)cc2)cc1 [Example J27, N-methyl-2-((2S)-1-((2R)-2-phenyl-2-(1-piperidinyl)acetyl)-2-pyrrolidinyl)-5-(4′-(2-((2S)-1-((2R)-2-phenyl-2-(1-piperidinyl)acetyl)-2-pyrrolidinyl)-1H-imidazol-5-yl)-4-biphenylyl)-1H-imidazole-4-carboxamide] fall in the same range of EC50: 0.001 to 0.999 nM for the first, 0.001 to 0.999 nM for the second.

CCOC(=O)N[C@H](C)C(=O)N1CCC[C@H]1c1ncc(-c2ccc(-c3ccc(-c4cnc([C@@H]5CCCN5C(=O)[C@@H](c5ccccc5)N(CC)CC)[nH]4)cc3)cc2)[nH]1 [Example M30, ethyl ((1R)-2-((2S)-2-(5-(4′-(2-((2S)-1-((2R)-2-(diethylamino)-2-phenylacetyl)-2-pyrrolidinyl)-1H-imidazol-5-yl)-4-biphenylyl)-1H-imidazol-2-yl)-1-pyrrolidinyl)-1-methyl-2-oxoethyl)carbamate] and CCN(CC)[C@@H](C(=O)N1CCC[C@H]1c1ncc(-c2ccc(-c3ccc(-c4cnc([C@@H]5CCCN5C(=O)N5CCOCC5)[nH]4)cc3)cc2)[nH]1)c1ccccc1 [Example M51, (1R)-N,N-diethyl-2-((2S)-2-(5-(4′-(2-((2S)-1-(4-morpholinylcarbonyl)-2-pyrrolidinyl)-1H-imidazol-5-yl)-4-biphenylyl)-1H-imidazol-2-yl)-1-pyrrolidinyl)-2-oxo-1-phenylethanamine] fall in the same range of EC50: 1 to 99 nM for the first, 1 to 99 nM for the second.

COC(=O)N[C@@H](C(=O)N1CCC[C@H]1c1ncc(-c2ccc(-c3ccc(-c4cnc([C@@H]5CCCN5C(=O)Cc5cccnc5)[nH]4)cn3)cc2)[nH]1)c1ccccc1 [Example 143, methyl ((1R)-2-oxo-1-phenyl-2-((2S)-2-(5-(4-(5-(2-((2S)-1-(3-pyridinylacetyl)-2-pyrrolidinyl)-1H-imidazol-5-yl)-2-pyridinyl)phenyl)-1H-imidazol-2-yl)-1-pyrrolidinyl)ethyl)carbamate] and COC(=O)N[C@@H](C(=O)N1CCC[C@H]1c1ncc(-c2ccc(-c3ccc(-c4cnc([C@@H]5CCCN5C(=O)Cc5cccnc5)[nH]4)cc3)cc2)[nH]1)c1ccccc1 [Example 47, methyl ((1R)-2-oxo-1-phenyl-2-((2S)-2-(5-(4′-(2-((2S)-1-(3-pyridinylacetyl)-2-pyrrolidinyl)-1H-imidazol-5-yl)-4-biphenylyl)-1H-imidazol-2-yl)-1-pyrrolidinyl)ethyl)carbamate] fall in the same range of EC50: 0.001 to 0.999 nM for the first, 0.001 to 0.999 nM for the second.

First: COC(=O)N[C@@H](C)C(=O)N1CCC[C@H]1c1ncc(-c2ccc(-c3ccc(-c4cnc([C@@H]5CCCN5C(=O)[C@@H](NC5=NCCN5)C(C)C)[nH]4)cc3)cc2)[nH]1 [cj-11f, methyl ((1S)-2-((2S)-2-(5-(4′-(2-((2S)-1-(N-(4,5-dihydro-1H-imidazol-2-yl)-L-valyl)-2-pyrrolidinyl)-1H-imidazol-5-yl)-4-biphenylyl)-1H-imidazol-2-yl)-1-pyrrolidinyl)-1-methyl-2-oxoethyl)carbamate]
Second: CCCc1[nH]c([C@@H]2CCCN2C(=O)[C@H](C)NC(=O)OC)nc1-c1ccc(-c2ccc(-c3cnc([C@@H]4CCCN4C(=O)[C@H](C)NC(=O)OC)[nH]3)cc2)cc1 [Example J14c, methyl ((1S)-2-((2S)-2-(4-(4′-(2-((2S)-1-(N-(methoxycarbonyl)-L-alanyl)-2-pyrrolidinyl)-4-propyl-1H-imidazol-5-yl)-4-biphenylyl)-1H-imidazol-2-yl)-1-pyrrolidinyl)-1-methyl-2-oxoethyl)carbamate]
The EC50 of the first is higher: 1 to 99 nM for the first, 0.001 to 0.999 nM for the second.

First: COC(=O)N[C@H](C(=O)N1CCC[C@H]1c1ncc(-c2ccc(-c3ccc(-c4cnc([C@@H]5CCCN5C(=O)[C@@H](NC(=O)OC)C(C)C)[nH]4)cc3CO)cc2)[nH]1)C(C)C [Example M119, methyl ((1S)-1-(((2S)-2-(5-(2-(hydroxymethyl)-4′-(2-((2S)-1-((2S)-2-((methoxycarbonyl)amino)-3-methylbutanoyl)-2-pyrrolidinyl)-1H-imidazol-5-yl)-4-biphenylyl)-1H-imidazol-2-yl)-1-pyrrolidinyl)carbonyl)-2-methylpropyl)carbamate]
Second: COC(=O)Cc1[nH]c([C@@H]2CCCN2C(=O)[C@@H](NC(=O)OC)[C@@H](C)OC)nc1-c1ccc(-c2ccc(-c3cnc([C@@H]4CCCN4C(=O)[C@@H](NC(=O)OC)[C@@H](C)OC)[nH]3)cc2)cc1 [Example J14b, methyl (2-((2S)-1-(N-(methoxycarbonyl)-O-methyl-L-threonyl)-2-pyrrolidinyl)-4-(4′-(2-((2S)-1-(N-(methoxycarbonyl)-O-methyl-L-threonyl)-2-pyrrolidinyl)-1H-imidazol-4-yl)-4-biphenylyl)-1H-imidazol-5-yl)acetate]
The EC50 of the first is higher: 100 to 999 nM for the first, 0.001 to 0.999 nM for the second. The second is the more potent here.

Compared with COC(=O)N[C@@H](Cc1cn(Cc2ccccc2)cn1)C(=O)N1CCC[C@H]1c1ncc(-c2ccc(-c3ccc(-c4cnc([C@@H]5CCCN5C(=O)[C@H](Cc5cn(Cc6ccccc6)cn5)NC(=O)OC)[nH]4)cc3)cc2)[nH]1 [cj-154, methyl ((1S)-2-((2S)-2-(5-(4′-(2-((2S)-1-((2S)-3-(1-benzyl-1H-imidazol-4-yl)-2-((methoxycarbonyl)amino)propanoyl)-2-pyrrolidinyl)-1H-imidazol-5-yl)-4-biphenylyl)-1H-imidazol-2-yl)-1-pyrrolidinyl)-1-((1-benzyl-1H-imidazol-4-yl)methyl)-2-oxoethyl)carbamate], COC(=O)N[C@@H](C(=O)N1CCC[C@H]1c1ncc(-c2ccc(-c3ccc(-c4cnc([C@@H]5CCCN5C(=O)[C@@H]5Cc6ccc(O)cc6CN5)[nH]4)cc3)cc2)[nH]1)c1ccccc1 [Example 84-20, methyl ((1R)-2-((2S)-2-(5-(4′-(2-((2S)-1-(((3S)-7-hydroxy-1,2,3,4-tetrahydro-3-isoquinolinyl)carbonyl)-2-pyrrolidinyl)-1H-imidazol-5-yl)-4-biphenylyl)-1H-imidazol-2-yl)-1-pyrrolidinyl)-2-oxo-1-phenylethyl)carbamate] is higher in EC50: 0.001 to 0.999 nM for the first, 1 to 99 nM for the second.

First: COC(=O)N[C@H](C(=O)N1[C@@H](c2ncc(-c3ccc(-c4ccc(-c5cnc([C@H]6C[C@H]7C[C@H]7N6C(=O)[C@@H](NC(=O)OC)C(C)C)[nH]5)cc4)cc3)[nH]2)C[C@H]2C[C@H]21)C(C)C [Example M131, methyl ((1S)-1-(((1R,3R,5R)-3-(5-(4′-(2-((1R,3R,5R)-2-((2S)-2-((methoxycarbonyl)amino)-3-methylbutanoyl)-2-azabicyclo[3.1.0]hex-3-yl)-1H-imidazol-5-yl)-4-biphenylyl)-1H-imidazol-2-yl)-2-azabicyclo[3.1.0]hex-2-yl)carbonyl)-2-methylpropyl)carbamate]
Second: C[C@H](NC(=O)[C@@H](c1ccccc1)N(C)C)c1ncc(-c2ccc(-c3ccc(-c4cnc([C@@H]5CCCN5C(=O)[C@@H](c5ccccc5)N(C)C)[nH]4)nn3)cc2)[nH]1 [Example 152j-13, (2R)-2-(dimethylamino)-N-((1S)-1-(5-(4-(6-(2-((2S)-1-((2R)-2-(dimethylamino)-2-phenylacetyl)-2-pyrrolidinyl)-1H-imidazol-5-yl)-3-pyridazinyl)phenyl)-1H-imidazol-2-yl)ethyl)-2-phenylacetamide]
The EC50 of the first is lower: 0.001 to 0.999 nM for the first, 1 to 99 nM for the second.
